Reference: publication PMC7155171, “Probing the Open Global Health Chemical Diversity Library for Multistage-Active Starting Points for Next-Generation Antimalarials” (ACS Infectious Diseases, 2020)
Read-outs that look alike come from different tables or passages of the source.

Tests used:
P. falciparum Dd2 = assay: SYBR green I asexual blood stage proliferation assay (96 h); assay type: cell-based, Plasmodium falciparum; settings: for IC50 / Emax: Plasmodium falciparum
[1] = test system: P. falciparum Dd2 (PfLuc) line expressing firefly luciferase, asexual blood stage; assay: microbe, parasite or virus in culture; assay type: cell-based, Plasmodium falciparum; settings: Plasmodium falciparum
[2] = DD2, Sybr Green I, 11-pt dose response, 96hr, read-out: CDD P. falciparum Sybr Green I ABS 11-pt Reconfirmation Dose Response (96hr): IC50
[3] = DD2, Sybr Green I, 11-pt dose response, 96hr, read-out: CDD P. falciparum Sybr Green I ABS 11-pt Reconfirmation Dose Response (96hr): Maximum inhibition (%)
[4] = DD2, read-out: CDD P. falciparum Luciferase ABS 11-pt Reconfirmation Dose Response (48hr): IC50 (μM), 11-pt dose response, 48hr
[5] = DD2, 8-pt dose response, 96hr, read-out: CDD P. falciparum Luciferase ABS 8-pt Reconfirmation Dose Response (96hr): IC50
[6] = DD2, 8-pt dose response, 96hr, read-out: CDD P. falciparum Luciferase ABS 8-pt Reconfirmation Dose Response (96hr): Maximum inhibition (%)
[7] = DD2, 11-pt dose response, 48hr, read-out: CDD P. falciparum Luciferase ABS 11-pt Reconfirmation Dose Response (48hr): Maximum inhibition (%)
[8] = DD2, 11-pt dose response, 96hr, read-out: CDD P. falciparum Luciferase ABS 11-pt Reconfirmation Dose Response (96hr): IC50
[9] = DD2, 11-pt dose response, 96hr, read-out: CDD P. falciparum Luciferase ABS 11-pt Reconfirmation Dose Response (96hr): Maximum inhibition (%)
[10] = DD2, 11-pt dose response, 96hr, read-out: P. falciparum Sybr Green I ABS 11-pt Reconfirmation Dose Response (96hr): IC50
[11] = DD2, read-out: P. falciparum Luciferase ABS 11-pt Reconfirmation Dose Response (48hr): IC50, 11-pt dose response, 48hr
[12] = DD2, 8-pt dose response, 96hr, read-out: P. falciparum Luciferase ABS 8-pt Reconfirmation Dose Response (96hr): IC50
[13] = DD2, 8-pt dose response, 96hr, read-out: P. falciparum Luciferase ABS 8-pt Reconfirmation Dose Response (96hr): Maximum inhibition (%)
[14] = DD2, 11-pt dose response, 48hr, read-out: P. falciparum Luciferase ABS 11-pt Reconfirmation Dose Response (48hr): Maximum inhibition (%)
[15] = DD2, 11-pt dose response, 96hr, read-out: P. falciparum Luciferase ABS 11-pt Reconfirmation Dose Response (96hr): IC50
[16] = DD2, 11-pt dose response, 96hr, read-out: P. falciparum Luciferase ABS 11-pt Reconfirmation Dose Response (96hr): Maximum inhibition (%)
[17] = DD2, 11-pt dose response, 96hr, read-out: P. falciparum Sybr Green I ABS 11-pt Reconfirmation Dose Response (96hr): Maximum inhibition (%)

| SMILES | IC50 (P. falciparum Dd2; [2]) [nM] | Emax (P. falciparum Dd2; [3]) [%] | IC50 [1, 4] [µM] | IC50 [1, 5] [µM] | Emax [1, 6] [%] | Emax [1, 7] [%] | IC50 [1, 8] [µM] | Emax [1, 9] [%] | other results |
| --- | --- | --- | --- | --- | --- | --- | --- | --- | --- |
| CN(C)c1nc2c(c(NCc3cc(O)ncn3)n1)CCCC2 [DDD01252975] | 1820 | 99.1 | 3.75 | 0.59 | 94 | 96 | 2.11 | 99.7 | – |
| Cc1cc(F)ccc1N1CCC(N2C[C@@H](CN(C)C)[C@@H](CO)C2)CC1 [DDD01253692] | 2030 | 90.3 | > 4.16 | 0.37 | 94.9 | 55.2 | 0.396 | 100 | – |
| c1ccc(C2CN(C3CC3)CC3(CCN(Cc4cscn4)CC3)C2)cc1 (stereo not shown) [DDD01253863] | – | – | – | – | – | – | – | – | IC50 (P. falciparum Dd2; [10]): > 4160 nM; IC50 [1, 11]: 4.6 µM; IC50 [1, 12]: 1.16 µM; Emax [1, 13]: 78.8%; Emax [1, 14]: 85%; IC50 [1, 15]: 3.45 µM; Emax [1, 16]: 96.3% |
| OC(CNCc1ccccc1C(F)(F)F)c1ccccc1 (stereo not shown) [DDD01254021] | 3660 | 87.9 | 4.82 | 0.87 | 91.4 | 84.3 | 1.76 | 97.4 | – |
| NCC1Cc2cc(-c3nccc(N4CCC(O)CC4)n3)cc(F)c2O1 (stereo not shown) [DDD01254054] | 2490 | 92 | 2.43 | 0.59 | 94.6 | 91.4 | 1.87 | 98.9 | – |
| COCCN(C)Cc1cc(Cl)ccc1OCC(O)CN1CCCCCC1 (stereo not shown) [DDD01254091] | – | – | – | – | – | – | – | – | IC50 (P. falciparum Dd2; [10]): 3770 nM; Emax (P. falciparum Dd2; [17]): 91.7%; IC50 [1, 11]: 3 µM; IC50 [1, 12]: 1.11 µM; Emax [1, 13]: 94.7%; Emax [1, 14]: 98.3%; IC50 [1, 15]: > 1.39 µM; Emax [1, 16]: 101% |
| Nc1nc2c(c(N3CCCC(c4nnc5ccccn45)C3)n1)CCNC2 (stereo not shown) [DDD01254485] | > 12500 | 52.8 | > 12.5 | 0.18 | 90.3 | 46.1 | 0.312 | 95.2 | – |
| CNc1nc(C)cc(NC2CCCN(C3Cc4ccccc4C3)C2)n1 (stereo not shown) [DDD01254555] | 1020 | 87 | 2.19 | 1.11 | 92.9 | 82.6 | 1.07 | 100 | – |
| Cc1ccccc1N1CCCN(CC2(O)CCCNC2)CC1 (stereo not shown) [DDD01254676] | 1590 | 91.2 | 3.64 | 0.54 | 90.4 | 89.1 | 1.37 | 97.2 | – |
| CN(Cc1ncc[nH]1)c1nc(-c2ccccn2)nc2c1CCNCC2 [DDD01254777, CN(Cc1ncc[nH]1)c1nc(nc2CCNCCc12)-c1ccccn1] | – | – | – | – | – | – | – | – | CDD P. falciparum Sybr Green I ABS Dd2 Dose Response: Maximum measured (%) (P. falciparum Dd2; Dd2, 96 h): 65.7%; IC50 (P. falciparum Dd2; DD2, 96 h, read-out: CDD P. falciparum Sybr Green I ABS Dd2 Dose Response: IC50): > 4160 nM; IC50 ([1]; DD2, read-out: CDD P. falciparum Luc 11pt dose response (96hr, n=2): IC50 (μM), 96hr, 11-point, n=2): 0.214 µM; IC50 ([1]; DD2, read-out: CDD P. falciparum Luciferase 11pt dose response (48hr, n=2): IC50 (μM), 48hr, 11-point, n=2): 10.2 µM; Emax ([1]; DD2, 48hr, 11-point, read-out: CDD P. falciparum Luciferase ABS 11-pt Reconfirmation Dose Response (48hr): Maximum inhibition (%)): 65.1%; Emax ([1]; DD2, 96hr, 11-point, read-out: CDD P. falciparum Luciferase ABS 11-pt Reconfirmation Dose Response (96hr): Maximum inhibition (%)): 94.2%; IC50 ([1]; 96 h incubation, Dd2 luciferase, read-out: 96 hour Pfluc IC50): 0.21 µM |
| CN1CCC(C2CCN(Cc3cccc(-n4cccn4)c3)CC2)C1 (stereo not shown) [DDD01255349] | 2050 | 94.8 | 0.818 | 0.65 | 93.2 | 97.1 | 0.46 | 100 | – |
| Clc1cccc2c3c([nH]c12)CCN(Cc1cc2n(n1)CCCNC2)C3 [DDD01255494] | – | – | – | – | – | – | – | – | IC50 (P. falciparum Dd2; [10]): 3520 nM; Emax (P. falciparum Dd2; [17]): 91%; IC50 [1, 11]: 3.79 µM; IC50 [1, 12]: 1.21 µM; Emax [1, 13]: 91.2%; IC50 [1, 15]: 1.07 µM; Emax [1, 16]: 99.6% |
| COc1ccc(-c2ccccc2CCN)c(OC)c1OC [DDD01256178] | 3030 | 89.5 | 3.3 | 1 | 87.9 | 83.2 | 2.11 | 98.8 | – |
| CC(C)(C)c1nccc(C2(c3ccccc3Cl)CCNCC2)n1 [DDD01256872] | – | – | – | – | – | – | – | – | IC50 (P. falciparum Dd2; [10]): 1710 nM; Emax (P. falciparum Dd2; [17]): 74.4%; IC50 [1, 11]: 5.56 µM; IC50 [1, 12]: 2.03 µM; Emax [1, 13]: 78.8%; Emax [1, 14]: 91.9%; IC50 [1, 15]: 1.22 µM; Emax [1, 16]: 98.3% |
